The results in this text go back to article PMC2846816 (Arthritis and rheumatism, 2009).

Where a name gives a salt, the structure may show the parent alone. Read-outs that look alike come from different tables or passages of the source.

Holding throughout (experiment): Fura-2 Ca2+ influx
Format in all cases: cell-based

The target in experiment [1] is T1, TRPV4 (Sus scrofa, UniProt B3VP30).
Experiment [2] deals with T1, TRPV4. The source holds these as a separate data set.
Experiment [3] has as its target T1, TRPV4. The source holds these as a separate data set.

T1 sequence (B3VP30 1-871): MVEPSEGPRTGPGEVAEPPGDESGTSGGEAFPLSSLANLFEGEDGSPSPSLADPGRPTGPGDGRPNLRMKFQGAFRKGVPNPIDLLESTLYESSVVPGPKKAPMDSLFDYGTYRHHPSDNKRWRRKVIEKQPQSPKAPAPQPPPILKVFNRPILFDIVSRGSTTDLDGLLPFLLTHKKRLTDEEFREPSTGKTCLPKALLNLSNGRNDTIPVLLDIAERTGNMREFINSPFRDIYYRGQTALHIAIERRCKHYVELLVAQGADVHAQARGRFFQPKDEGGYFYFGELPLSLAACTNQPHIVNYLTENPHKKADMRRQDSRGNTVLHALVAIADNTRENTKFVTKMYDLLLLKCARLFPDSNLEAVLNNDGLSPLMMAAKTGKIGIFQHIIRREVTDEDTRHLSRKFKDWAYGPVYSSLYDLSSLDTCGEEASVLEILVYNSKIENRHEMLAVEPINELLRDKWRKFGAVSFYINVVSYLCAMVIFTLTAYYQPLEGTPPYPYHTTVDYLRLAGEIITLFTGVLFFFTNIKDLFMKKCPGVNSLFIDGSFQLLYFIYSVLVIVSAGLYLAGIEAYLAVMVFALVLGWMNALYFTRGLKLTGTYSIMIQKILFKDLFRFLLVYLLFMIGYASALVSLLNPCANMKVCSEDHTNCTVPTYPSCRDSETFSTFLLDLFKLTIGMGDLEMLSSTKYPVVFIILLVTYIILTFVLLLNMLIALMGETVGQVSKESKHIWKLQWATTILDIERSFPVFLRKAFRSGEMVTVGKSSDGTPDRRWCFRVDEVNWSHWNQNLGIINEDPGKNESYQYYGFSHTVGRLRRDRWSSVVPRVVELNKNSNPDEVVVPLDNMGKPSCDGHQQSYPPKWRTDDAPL

Regarding `CN(CCc1ccc(Nc2ncc(-c3cccnc3)s2)cc1)Cc1ccccc1` [GSK205, N-(4-{2 [methyl(phenylmethyl)amino]ethyl}phenyl)-5-(3-pyridinyl)-1,3-thiazol-2-amine hydrobromide], the IC50 (in general, the concentration that gives 50% inhibition) on TRPV4 [1] was ~600 nM.

In the case of `Cl.Cl.Cl.Cl.Cl.Cl.N.N.N.N.N.N.N.N.N.N.N.N.N.N.[O-2].[O-2].[Ru+3].[Ru+3].[Ru+4]` [Ruthenium Red], at TRPV4 [2], the IC50 was ~5 nM.

Regarding `CCCCCCCCCC(=O)O[C@@H]1[C@@H](C)[C@@]2(O)[C@@H](C=C(CO)C[C@@]3(O)C(=O)C(C)=C[C@@H]23)[C@@H]2C(C)(C)[C@]12OC(=O)CCCCCCCCC` [4αPDD], the EC50 (as a rule, the concentration giving half of the maximal effect) at TRPV4 [3] is ~2000 nM.
